Common to all, as to format: cell-based
One assay concerns Fusarium solani FS2. Kind of assay: 24 hr Fusarium solani MIC (RPMI medium, FS2). To be noted: banded into grades, read-out: MIC. The procedure: Between 1 and 5 mgs of compound were accurately weighed out into a sterile Eppendorf tube. The compound was dissolved in DMSO to give a solution containing 5 mg/mL. Tubes were stored at −20° C. until required.
On the day of testing thawed solutions were vortex mixed to ensure homogeneity. 30 μL of solution was removed and added to 570 μL of sterile water in a separate sterile Eppendorf The thoroughly mixed solution was used to prepare a series of doubling dilutions in water, in a deep well plate. […] replicate plates were prepared using a Minitrak by aspirating 20 μL from each well into eleven clear polystyrene 96 well plates.
Spores of Aspergillus spp. (Aspergillus fumigatus [two strains], Aspergillus terreus [two strains], Aspergillus niger and Aspergillus flavus) were harvested from cultures grown on Sabarauds agar for 5 days, and resuspended in PBS/Tween 80 to approx 1×10^7 cfu/mL. Other filamentous fungi (Absidia corymbifera, Fusarium solani, Rhizomucor, Scedosporium spp., Trichophyton spp.), were grown on Sabarauds agar for 2-10 days and spores/hyphae resuspended in PBS/Tween to give approx 1×10^7 cfu/mL. Candida species (Candida albicans, Candida glabrata, Candida krusei, Candida parapsilosis and Candida tropicalis) were grown on Sabarauds agar, cells were harvested from the agar using a sterile loop and resuspended in PBS/Tween 80 to approx 1×10^6 cfu/mL. Each organism suspension was diluted in RPMI medium, containing 2% glucose and 0.135 M MOPS buffer (pH 7.0) to 0.5−2×10^4 cfu/mL for Aspergillus spp. and other filamentous fungi and 0.5-2×10^3 cfu/mL for yeast. 80 μL of an organism suspension was added to each well of the plate containing drug dilutions.
This produced MIC plates with a drug range 50-0.05 mg/L and organism inocula of 1-2×10^4 cfu/mL for Aspergillus spp. and other filamentous fungi and 1-2×10^3 cfu/mL for yeasts. All plates were incubated for 24-48 hrs at 35° C. Growth was assessed by monitoring the optical density at 485 nm for each well. The MIC of a compound is the lowest drug concentration that inhibits growth of an organism by >80% compared with a drug free control. MICs are recorded as mg/L. Other growth media can be used for susceptibility testing, and the activity of the described compounds can also be assessed in a medium comprising 1% glucose, 1% ammonium chloride and 0.5% yeast extract (YAG medium). To perform MIC tests in this medium, dilutions of compounds are prepared in microtitre plates as described above. Fungal strains to be tested are grown and harvested in an identical manner to that described above, each organism suspension is then diluted in YAG medium to 0.5-2×10^4 cfu/mL for Aspergillus spp. and other filamentous fungi and 0.5-2×10^3 cfu/mL for yeast. 80 μL of an organism suspension was added to each well of the plate containing drug dilutions. This produced MIC plates with a drug range 50-0.05 mg/L and organism inocula of 1-2×10^4 cfu/mL for Aspergillus spp. and other filamentous fungi and 1-2×10^3 cfu/mL for yeasts. All plates were incubated for 24 hrs at 35° C. Growth was assessed by monitoring the optical density at 485 nm for each well. The MIC of a compound is the lowest drug concentration that inhibits growth of an organism by >70% compared with a drug free control. MICs are recorded as mg/L. In cases where the MIC of an organism is […] mg/L the MIC is repeated using a concentration range of 0.5-0.0005 mg/L. MIC tests in YAG medium have more clear-cut endpoints and have slightly lower MICs than those performed in RPMI medium.
24 hr Fusarium solani MIC Results (RPMI Medium, FS2): […]

For assay [1], the system named is Aspergillus fumigatus AF210. Put plainly: Checkerboard titration (FIC) of an indolizine derivative with a second antifungal agent, RPMI medium. Particulars: compound of Example 21 in combination with caspofungin, 48 hrs. The procedure:
To determine the combined antifungal effect of indolizine derivatives of formula (I) and the second antifungal agent a checkerboard titration can be carried out. These are relatively simple tests to determine the combined effects of two compound. In the checkerboard titration doubling dilutions of compound A (e.g. an indolizine derivative of formula (I)) are prepared in every row across a microtitre plate and doubling dilutions of compound B (e.g. a second antifungal agent as described above) are prepared in every column down a microtitre plate. The activity of the two compounds in combination can be compared with the activity of each compound alone. In these experiments a narrow range of dilutions was tested for each compound around the MIC.
A stock solution of the compound of Example […] was prepared in DMSO. A stock solution of a second antifungal agent, in this case caspofungin, was 2 mg/ml.
The stock solution of the compound of Example 21 was diluted 1:2000 in water to 2.5 μg/ml. From this stock, aqueous solutions containing the following concentrations of the compound of Example 21 were prepared 0.9, 0.8, 0.7, 0.6, 0.5, 0.4, 0.3, 0.2, 0.1, 0.05, 0.025, 0.0125 μg/ml. […]
To determine the combined effect of the compounds the Fractional inhibitory concentration FIC was determined, where FIC is defined as: […]

Another assay deals with Aspergillus flavus. Put plainly: MIC (YAG medium). Particulars: Aspergillus flavus; YAG medium; MIC banded into grades; read-out: MIC A. flavus (grade). In outline: (§1)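 Spores harvested from 5-day Sabouraud agar cultures were diluted in YAG medium (1% glucose, 1% ammonium chloride, 0.5% yeast extract) to final inocula of 1-2×10^4 cfu/mL and exposed to doubling dilutions of compound (50-0.05 mg/L). After 24 hrs at 35° C, OD485 was read; MIC is the lowest concentration giving >70% growth inhibition versus drug-free control.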

Assay [2] deals with Aspergillus fumigatus AF210. Kind of assay: MIC (YAG medium). Particulars: Aspergillus fumigatus; YAG medium; MIC banded into grades; AF210; read-out: MIC A. fumigatus 210 (grade). An outline of the steps: as §1
In assay [3] the test system is Aspergillus fumigatus AF293. Put plainly: MIC (YAG medium). To be noted: Aspergillus fumigatus; YAG medium; MIC banded into grades; AF293; read-out: MIC A. fumigatus (grade). In outline: as §1
In a further assay the test system is Aspergillus niger. Put plainly: MIC (YAG medium). Particulars: Aspergillus niger; YAG medium; MIC banded into grades; read-out: MIC A. niger (grade). In outline:
as §1

The test system of another assay is Aspergillus terreus AT49. Put plainly: MIC (YAG medium). To be noted: Aspergillus terreus; YAG medium; MIC banded into grades; AT49; read-out: MIC A. terreus 49 (grade). In outline:
as §1

The next assay deals with Aspergillus terreus AT4. Put plainly: MIC (YAG medium). To be noted: Aspergillus terreus; YAG medium; MIC banded into grades; AT4; read-out: MIC A. terreus (grade). An outline of the steps:
as §1

A value given as a limit tells only on which side of the number the result lay.

Take `Cc1cc(C)nc(N2CCN(c3ccc(NC(=O)C(=O)c4c(-c5ccccc5)cc5ccccn45)cc3)CC2)c1` [Example 21, N-{4-[4-(4,6-Dimethyl-pyridin-2-yl)-piperazin-1-yl]-phenyl}-2-oxo-2-(2-phenyl-indolizin-3-yl)-acetamide]: the MIC (in the assay on Fusarium solani FS2; with Aspergillus flavus; in assay [2]; in assay [3]; in the assay with Aspergillus niger; with Aspergillus terreus AT49) was less than 1 µg/mL throughout. Further, in the assay on Aspergillus terreus AT4, the MIC is less than 1 µg/mL. For the same compound, the “FIC (fractional inhibitory concentration)” value in assay [1] came to 0.66.

These data come from patent US20110183969A1, “ANTIFUNGAL COMBINATION THERAPY” (priority 2008, published 2011).
